For 35 molecules, IC50 and melting point results are on record in patent publication US6960614B2, “Oxygenated esters of 4-lodo phenylamino benzhydroxamic acids” (Warner-Lambert Company, priority 2000, dated 2005).

Usually IC50 stands for the concentration that gives 50% inhibition. By melting point is commonly meant the temperature, or range, at which the solid turns liquid.

One data set deals with MEK. The experiment in a line: Cellular Assay for Measuring MEK Inhibition (inhibition of ERK phosphorylation in C26 cells, Western blot). It counts as cell-based, murine. The settings on record: inhibition of ERK phosphorylation in murine colon 26 (C26) carcinoma cells; determined graphically from dose response curve. The method in brief:
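Exponentially growing murine colon 26 (C26) carcinoma cells treated with varying compound concentrations at 37° C, then lysed. Western blot with antibody to dually phosphorylated ERK1/ERK2; blots stripped and re-probed for total ERK1/ERK2.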
For orientation: In western blotting, separated proteins are transferred to a membrane and probed.

`Cc1cc(I)ccc1Nc1c(C(=O)NOCC(O)C(F)(F)F)ccc(F)c1F` (stereo not drawn) [Example 72, 3,4-Difluoro-2-(4-iodo-2-methyl-phenylamino)-N-(3,3,3-trifluoro-2-hydroxy-propoxy)-benzamide]: the melting point is 175.2 to 175.5 °C. This molecule returned an IC50 in the data set on MEK of 19 nM.
With `Cc1cc(I)ccc1Nc1c(C(=O)NOCC(O)CO)cc(Cl)c(F)c1F` (stereo not drawn) [Example 35, 5-Chloro-N-(2,3-dihydroxy-propoxy)-3,4-difluoro-2-(4-iodo-2-methyl-phenylamino)-benzamide], the melting point fell in the range of 67 to 69 °C. In the data set on MEK, this molecule registered an IC50 of 6 nM.
On to `O=C(NOCCO)c1ccc(F)c(F)c1Nc1ccc(Br)cc1F` [Example 22, 2-(4-Bromo-2-fluoro-phenylamino)-3,4-difluoro-N-(2-hydroxy-ethoxy)-benzamide], for which the melting point was in the range of 146.1 to 146.4 °C. Moreover, 7.7 nM corresponded to half-maximal inhibition in the data set with MEK (IC50).
As to `O=C(NOCCO)c1cc(Cl)c(F)c(F)c1Nc1ccc(I)cc1F` [Example 10, 5-Chloro-3,4-difluoro-2-(2-fluoro-4-iodo-phenylamino)-N-(2-hydroxy-ethoxy)-benzamide], the melting point was 180 to 180.5 °C. This molecule also returned an IC50 in the data set on MEK of 0.3 nM.
Molecule `O=C(NOCC(O)CO)c1cc(F)c(F)c(F)c1Nc1ccc(I)cc1F` (stereo not drawn) [Example 43, N-(2,3-Dihydroxy-propoxy)-3,4,5-trifluoro-2-(2-fluoro-4-iodo-phenylamino)-benzamide] came in with a melting point of 157 to 160 °C. Also, the IC50 with MEK was found to be 1.8 nM.
`C=COCCONC(=O)c1cc(Br)c(F)c(F)c1Nc1ccc(I)cc1F` [Example 61, 5-Bromo-3,4-difluoro-2-(2-fluoro-4-iodo-phenylamino)-N-(2-vinyloxy-ethoxy)-benzamide] yielded a melting point of 128 to 130 °C. This molecule showed an IC50 in the data set with MEK of 150 nM.
The molecule `O=C(NOCCO)c1cc(F)c(F)cc1Nc1ccc(Br)cc1F` [Example 23, 2-(4-Bromo-2-fluoro-phenylamino)-4,5-difluoro-N-(2-hydroxy-ethoxy)-benzamide] registered a melting point of 190.8 to 192.5 °C. Also, the IC50 in the data set on MEK was 32 nM.
The molecule `Cc1cc(I)ccc1Nc1c(C(=O)NOCCO)cc(Br)c(F)c1F` [Example 13, 5-Bromo-3,4-difluoro-N-(2-hydroxy-ethoxy)-2-(4-iodo-2-methyl-phenylamino)-benzamide] yielded a melting point of 208.2 to 209.6 °C. In the data set on MEK, the IC50 was 2 nM.
For `O=C(NOCCCO)c1ccc(F)cc1Nc1ccc(I)cc1Cl` [Example 30], in that order: 158.8 to 160.8 °C and 130 nM.
For `CC1(C)OCC(ONC(=O)c2ccc(F)c(F)c2Nc2ccc(I)cc2F)CO1` [Example 46, N-(2,2-Dimethyl-[1,3]dioxan-5-yloxy)-3,4-difluoro-2-(2-fluoro-4-iodo-phenylamino)-benzamide], in that order: 154 to 155 °C and 582 nM.
In turn, `O=C(NOCCCCO)c1ccc(F)c(F)c1Nc1ccc(I)cc1F` [Example 33] gave a melting point of 131.4 to 131.9 °C. For the same molecule, the IC50 in the data set on MEK is 5 nM.
In turn, `Cc1cc(I)ccc1Nc1c(C(=O)NOCCO)cc(Cl)c(F)c1F` [Example 15] registered a melting point of 199.1 to 200.8 °C. Also, inhibition in the data set with MEK was half-maximal at 1 nM (IC50).
As for `Cc1cc(I)ccc1Nc1cc(F)ccc1C(=O)NOCCCO` [Example 28, 4-Fluoro-N-(3-hydroxy-propoxy)-2-(4-iodo-2-methyl-phenylamino)-benzamide], the melting point fell in the range of 120.8 to 122.4 °C. Moreover, in the data set with MEK, the concentration for half-maximal inhibition (IC50) was 120 nM.
`O=C(NOCCO)c1cc(Cl)c(F)c(F)c1Nc1ccc(I)cc1` [Example 7, 5-Chloro-3,4-difluoro-N-(2-hydroxy-ethoxy)-2-(4-iodo-phenylamino)-benzamide] showed a melting point of 174 to 176 °C. In addition, in the data set with MEK, inhibition was half-maximal at 5 nM (IC50).
For `Cc1cc(I)ccc1Nc1c(C(=O)NOCCO)ccc(F)c1F` [Example 2, 3,4-Difluoro-N-(2-hydroxy-ethoxy)-2-(4-iodo-2-methyl-phenylamino)-benzamide], in that order: 181 to 183 °C and 3 nM.
`O=C(NOCCO)c1ccc(F)c(F)c1Nc1ccc(I)cc1Cl` [Example 3, 2-(2-Chloro-4-iodo-phenylamino)-3,4-difluoro-N-(2-hydroxy-ethoxy)-benzamide] showed a melting point of 173 to 175 °C. Also, in the data set with MEK, the midpoint of inhibition, the IC50, lay at 4 nM.
Taken in the same sequence, the figures for `O=C(c1ccc(F)c(F)c1Nc1ccc(I)cc1F)N1CC(O)CO1` (stereo not drawn) [Example 83, [3,4-Difluoro-2-(2-fluoro-4-iodo-phenylamino)-phenyl]-(4-hydroxy-isoxazolidin-2-yl)-methanone] were 122 to 124 °C and 41 nM.
In the case of `Cc1cc(I)ccc1Nc1c(C(=O)NOCCC(O)CO)cc(Cl)c(F)c1F` (stereo not drawn) [Example 36, 5-Chloro-N-(3,4-dihydroxy-butoxy)-3,4-difluoro-2-(4-iodo-2-methyl-phenylamino)-benzamide], the melting point lay in the range of 135 to 138 °C. In the data set with MEK, this molecule yielded a half-maximal inhibitory concentration (IC50) of 53 nM.
In the case of `Cc1cc(I)ccc1Nc1c(C(=O)NOCCO)cc(F)c(F)c1F` [Example 1, 3,4,5-Trifluoro-N-(2-hydroxy-ethoxy)-2-(4-iodo-2-methyl-phenylamino)-benzamide], the melting point is 205 to 207 °C (dec.). The same molecule displayed an IC50 with MEK of 8 nM.
In turn, `O=C(NOCCO)c1cc(Cl)c(F)c(F)c1Nc1ccc(F)cc1F` [Example 26, 5-Chloro-2-(2,4-difluoro-phenylamino)-3,4-difluoro-N-(2-hydroxy-ethoxy)-benzamide] registered a melting point of 161.6 to 162.4 °C. Besides, the IC50 in the data set on MEK is 240 nM.
Molecule `C=COCCONC(=O)c1ccc(F)cc1Nc1ccc(I)cc1F` [Example 58, 4-Fluoro-2-(2-fluoro-4-iodo-phenylamino)-N-(2-vinyloxy-ethoxy)-benzamide] returned a melting point of 103.5 to 104 °C. Moreover, the IC50 with MEK came out at 60 nM.
For `O=C(NOCCO)c1ccc(F)c(F)c1Nc1ccc(Cl)cc1F` [Example 24, 2-(4-Chloro-2-fluoro-phenylamino)-3,4-difluoro-N-(2-hydroxy-ethoxy)-benzamide], in that order: 142.1 to 142.5 °C and 26 nM.
Taken in the same sequence, the figures for `CC1(C)OCC(CONC(=O)c2ccc(F)c(F)c2Nc2ccc(I)cc2F)O1` (stereo not drawn) [Example 38, N-(2,2-Dimethyl-[1,3]dioxolan-4-ylmethoxy)-3,4-difluoro-2-(2-fluoro-4-iodo-phenylamino)-benzamide] were 114 to 115 °C and more than 1000 nM.
For the molecule `O=C(NOCCO)c1ccc(F)cc1Nc1ccc(I)cc1F` [Example 8, 4-Fluoro-2-(2-fluoro-4-iodo-phenylamino)-N-(2-hydroxy-ethoxy)-benzamide], the melting point was 117 to 119 °C. In the data set with MEK, the half-inhibitory concentration (IC50) came to 0.3 nM.
Taken in the same sequence, the figures for `Cc1cc(I)ccc1Nc1cc(F)c(Br)cc1C(=O)NOCCO` [Example 16, 5-Bromo-4-fluoro-N-(2-hydroxy-ethoxy)-2-(4-iodo-2-methyl-phenylamino)-benzamide] were 154.4 to 156.4 °C and 20 nM.
For `COCC(O)CONC(=O)c1cc(Br)c(F)c(F)c1Nc1ccc(I)cc1Cl` (stereo not drawn) [Example 69, 5-Bromo-2-(2-chloro-4-iodo-phenylamino)-3,4-difluoro-N-(2-hydroxy-3-methoxy-propoxy)-benzamide], in that order: 139.5 to 140.1 °C and 60 nM.
In the case of `Cc1cc(I)ccc1Nc1c(C(=O)NOC(C)(C)CO)ccc(F)c1F` [Example 63, 3,4-Difluoro-N-(2-hydroxy-1,1-dimethyl-ethoxy)-2-(4-iodo-2-methyl-phenylamino)-benzamide], the melting point was in the range of 175 to 176 °C. It took 47 nM to reach half-maximal inhibition in the data set on MEK (IC50).
Taken in the same sequence, the figures for `COCC(O)CONC(=O)c1ccc(F)c(F)c1Nc1ccc(I)cc1C` (stereo not drawn) [Example 68] were 136.2 to 136.5 °C and 24 nM.
For `Cc1cc(I)ccc1Nc1c(C(=O)NOCC2(CO)CC2)ccc(F)c1F` [Example 70, 3,4-Difluoro-N-(1-hydroxymethyl-cyclopropylmethoxy)-2-(4-iodo-2-methyl-phenylamino)-benzamide], in that order: 165.4 to 165.6 °C and 200 nM.
In the case of `CC(C)(CO)ONC(=O)c1ccc(F)c(F)c1Nc1ccc(I)cc1F` [Example 65, 3,4-Difluoro-2-(2-fluoro-4-iodo-phenylamino)-N-(2-hydroxy-1,1-dimethyl-ethoxy)-benzamide], the melting point was in the range of 182 to 183 °C. The same molecule registered an IC50 with MEK of 14 nM.
Taken in the same sequence, the figures for `O=C(NOCC(O)CO)c1ccc(F)c(F)c1Nc1ccccc1F` (stereo not drawn) [Example 85, N-(2,3-Dihydroxy-propoxy)-3,4-difluoro-2-(2-fluoro-phenylamino)-benzamide] were 113 to 115 °C and 54 nM.
Taken in the same sequence, the figures for `O=C(NOCC(O)CO)c1ccc(F)c(F)c1Nc1ccc(Cl)cc1F` (stereo not drawn) [Example 45, 2-(4-Chloro-2-fluoro-phenylamino)-N-(2,3-dihydroxy-propoxy)-3,4-difluoro-benzamide] were 114 to 114.9 °C and 19 nM.
Taken in the same sequence, the figures for `O=C(NOCCO)c1cc(Br)c(F)c(F)c1Nc1ccc(I)cc1Cl` [Example 14, 5-Bromo-2-(2-chloro-4-iodo-phenylamino)-3,4-difluoro-N-(2-hydroxy-ethoxy)-benzamide] were 190.2 to 200.2 °C and 2 nM.
For the molecule `O=C(NOC(CO)CO)c1ccc(F)c(F)c1Nc1ccc(I)cc1F` [Example 47, 3,4-Difluoro-2-(2-fluoro-4-iodo-phenylamino)-N-(2-hydroxy-1-hydroxymethyl-ethoxy)-benzamide], the melting point lay within 111 to 114 °C. In addition, the IC50 in the data set with MEK was 1 nM.
Turning to `C=COCCONC(=O)c1ccc(F)c(F)c1Nc1ccc(I)cc1Cl` [Example 56, 2-(2-Chloro-4-iodo-phenylamino)-3,4-difluoro-N-(2-vinyloxy-ethoxy)-benzamide], the melting point is 141.5 to 143 °C.
